Laboratory results taken from ChEMBL document CHEMBL4196245, “Structures and Antimutagenic Effects of Onoceranoid-Type Triterpenoids from the Leaves of Lansium domesticum” (2018).
Calls of active or inactive are those of the source. The calls are words filed in the database; no cut-off is given here.

How the values were obtained:
Mus musculus = organism: Mus musculus; test: Antimutagenic activity against PhIP-induced mutation in ICR mouse assessed as reduction in micronucleated reticulocytes at 0.03 to 0.06% w/w treated prior to PhIP addition measured 24 to 48 hrs post dose by fluorescence microscopic analysis; type: functional, organism-based
Salmonella typhimurium [1] = test: Antimutagenic activity against Salmonella typhimurium TA98 assessed as inhibition of Trp-P-1-induced mutation at 100 nmol/plate measured in presence of S9 fraction by Ames test relative to control; type: functional, Salmonella enterica subsp. enterica serovar Typhimurium
Salmonella typhimurium [2] = test: Antimutagenic activity against Salmonella typhimurium TA98 assessed as inhibition of Trp-P-1-induced mutation at 80 nmol/plate measured in presence of S9 fraction by Ames test relative to control; type: functional, Salmonella enterica subsp. enterica serovar Typhimurium

**Q.** `C=C(C)[C@@H]1CC=C(C)[C@H](CC[C@H]2C(=C)CC[C@H]3C(C)(C)C(=O)CC[C@]23C)[C@@]1(C)CCC(=O)O` was tested. Which Activity (Mus musculus) did it give?
**A.** The Activity was “Active”.

**Q.** Which “inhibition (INH)” value (Salmonella typhimurium [1]) does the source give for `C=C(C)[C@@H]1CC=C(C)[C@H](CC[C@H]2C(=C)CC[C@H]3C(C)(C)[C@@H](O)CC[C@]23C)[C@@]1(C)CCC(=O)OCC` [ETHYL LANSIOLATE] here?
**A.** Its value is 7.9%.

**Q.** With `C=C(C)[C@@H]1CC=C(C)[C@H](CC[C@H]2C(=C)CC[C@H]3C(C)(C)[C@@H](O)CC[C@]23C)[C@@]1(C)CCC(=O)O` as the molecule, how does the “inhibition (INH)” value (Salmonella typhimurium [1]) read?
**A.** The value was 73.8%.

**Q.** How did the “inhibition (INH)” value (Salmonella typhimurium [2]) turn out when `COc1ccc(-c2cc(=O)c3c(OC)c(OC)c(OC)c(OC)c3o2)cc1OC` [NOBILETIN] was run?
**A.** The value was 56%.

**Q.** `C=C(C)[C@@H]1CC=C(C)[C@H](CC[C@H]2C(=C)CC[C@H]3C(C)(C)[C@@H](O)CC[C@]23C)[C@@]1(C)CCC(=O)OC` was tested. Which “inhibition (INH)” value (Salmonella typhimurium [1]) did it give?
**A.** Its value is 29.5%.
